For assay [1], the system named is MCF-7 human breast cancer cells. Briefly: ESR free radical (ROS) measurement in MCF-7 cell suspensions with DMPO. In kind it is cell-based. Conditions: for relative peak heights of the ESR signals (mean±range, n=2): 1×10^6 MCF-7 cells, 5 min at 37° C. As for the experimental part: Free Radical Measurements: All ESR measurements were conducted using a Bruker EMIR spectrometer (Bruker Instruments Inc., Billerica, Mass.) and a flat-cell assembly. Hyperfine couplings were measured (to 0.1 G) directly from magnetic field separation using potassium tetraperoxochromate (K3CrO8) and 1,1-diphenyl-2-picrylhydrazyl as reference standards. The relative radical concentration was estimated by multiplying half of the peak height by (ΔHpp)^2, where (ΔHpp) represents peak-to-peak width. The Acquisit program was used for data acquisitions and analyses. MCF-7 cells (2.0×10^6 cells/60-mm^2 dish) were harvested 48 h after plating by trypsinization and collected at room temperature by centnfugation (225 g, 5 min). Cells were washed once with ice-cold PBS and resuspended in ice-cold PBS at 2×10^6 cells/ml. Radical production was measured in the presence of the spin trap 5,5-dimethyl-1-pyrroline-N-oxide (DMPO; Aldrich Chemical Co., Milwaukee, Wis.). DMPO (200 mM) and 1×10^6 cells test agents were mixed in 1.0 ml of PBS, incubated at 37° C. for 5 mm, and then transferred to a flat cell for ESR measurements.

The subject of assay [2] is MCF-7 cells. Briefly: Colorimetric determination of reduced and oxidized glutathione. In kind it is cell-based, human. Conditions: after 1 h, P<0.05. The procedure: Colorimetric Determination of Reduced and Oxidized Glutathione: The GSH and GSSG concentrations in MCF-7 cells (3×10^6 cell/60 mm^2 dish) were measured enzymatically using the GSHI GSSG-412 kit (Oxis Research, Portland, Oreg.). GSSG and GSH standards were prepared in 5% metaphosphoric acid. Cell samples were prepared in 5% metaphosphoric acid with or without 1-methyl-2-vinyl-pyridium trifluoromethane sulfonate, a GSH-specific scavenger. Ellman's reagent (5′,5-dithiobis-2-nitrobenzoic acid) reacts with GSH to form a product with an absorption maximum at 412 nm. GSSG was determined using glutathione reductase to reduce GSSG to GSH followed by reaction with Ellman's reagent.

Assay [3] concerns MCF-7 cells. Description: Comet assay for DNA damage. In kind it is cell-based, human. The procedure: Comet Analysis: The comet assay is a single-cell gel electrophoresis method for measuring DNA damage. MCF-7 cells (2×10^5/35-mm^2 dish) were treated 12 h after plating. Twenty-four hours later, the cells were harvested and resuspended (1.5×10^5 cells/ml) in ice-cold PBS. The PBS cell suspension (50 ul) was mixed with 500 ul of 42° C. low-melting point agarose, spread evenly (75 ul) onto a Comet Slide (Trevigen, Gaithersburg, Md.), and allowed to harden. The slides were then immersed in ice-cold lysis solution (Trevigen) for 45 mm to lyse the cells and then transferred to freshly prepared alkali solution (300 mM NaOH and 1 mM EDTA, […]) for 45 mM. at room temperature to denature the DNA. Electrophoresis was performed at 4° C. Slides were air-dried overnight at room temperature and then stained with SYBR Green (Trevigen). Comets were visualized by fluorescence microscopy at 630× magnification with the aid of an antifade solution. Comet images were analyzed using the LAI Automated Comet Assay Analysis System (Loats Associates, Inc., Westminster, Md.). DNA damage was quantified in 80 comets per treatment/experiment using the tail moment [Tail moment [(% DNA) (distance traveled)]].

In assay [4] the test system is MCF-7 cells. Description: Cell death ELISA (apoptosis). In kind it is cell-based, human. The procedure:
Cell Death Enzyme-Linked Immunosorbent Assay: We quantified cytoplasmic nucleosomes using the Cell Death Detection […] kit (Roche Molecular Biochemicals, Indianapolis, Ind.) in MCF-7 cells plated in triplicate into 96-well plates. The cytoplasmic fractions from attached cells in each well were assayed in duplicate for the presence of nucleosomes according to the directions from the suppliers. The apoptotic response was measured by the nucleosome-enrichment fraction calculated as the ratio of the absorbance (405 nm) of drug-treated cultures/solvent-exposed cultures.

The next assay relates to T. gondii tachyzoites. Description: NSC3852 inhibition of T. gondii tachyzoite proliferation in HS68 cells (Example 4). In kind it is cell-based. The note with it: Toxoplasma gondii, approximately 60 hours, n=5 experiments, read-out: median IC50 for inhibition of T. gondii tachyzoite proliferation. The procedure:
Briefly, T. gondii tachyzoites (1×10^5) were introduced into individual wells in a 48-well culture dish containing confluent monolayers of host cells (normal human skin fibroblasts HS68). Approximately 60 hours later, the tachyzoites were harvested from the medium and counted. […] Data points wee the average of triplicate determinations at every concentration of NSC3852 used.

On to `O=Nc1ccc(O)c2ncccc12` [NSC3852, 5-nitroso-8-quinolinol], for which the entries for the “relative peak heights of the ESR signals (mean±range, n=2)” value in assay [1] (2 uM) and in assay [1] (10 uM) were 70±4 mm and 109±3 mm, respectively. In addition, the “ESR signal indicative of ROS production in MCF-7 cells” value in assay [1] (10 uM NSC3852, 8 uM NSC2039) was “indicative of the DMPO-OH adduct, was observed”. In addition, the “decrease in [GSH]/[GSSG] compared with control cells” value with MCF-7 cells [2] is 20%. For the same compound, in the assay on MCF-7 cells [3], the “DNA damage (comet tail moment)” value is recorded as “maximal at 24 h”. Also, in the assay on MCF-7 cells [4], the “time of peak apoptosis” value is 48 h. The IC50 in the assay on T. gondii tachyzoites is 79 nM.
